Patent US20230119479A1, “A HISTONE DEACETYLASE INHIBITOR HAVING A NITROGEN-CONTAINING AROMATIC HETEROCYCLYL GROUP” (SHIONOGI & CO., LTD., priority 2019, published 2023)

Columns and labels:
[1] = target: T1, HDAC2 Human recombinant C-terminal FLAG-tag (Homo sapiens, UniProt Q92769); experiment: Measurement of HDAC2 enzyme inhibitory activity (HTRF); assay type: biochemical; conditions: recombinant HDAC2, H3K9ac peptide, 3 hours room temperature; read-out: HDAC2 IC50
T1 construct: FLAG (C); purchased BPS Bioscience 50052
Outline: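 Compounds were tested at 8 points in 3-fold dilutions from 99 μM final (n=2) against FLAG-tagged HDAC2 with biotinylated H3K9ac (1-21) peptide (0.6 μM as added). The reaction ran 3 h at room temperature in Tris pH 8.0 buffer, then was stopped with SAHA. Deacetylated product was detected by HTRF (Eu-anti-H3K9me0 antibody, streptavidin-XL665) as the 665/615-620 nm ratio.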

[2] = target: T2, human ether-a-go-go related gene (hERG) channel (Homo sapiens, UniProt Q12809); experiment: hERG test (whole cell patch clamp); assay type: cell-based; conditions: CHO cells expressing hERG; concentration not given
T2 construct: expressed in transfected cells; host or cells: CHO cells
From the text: For the purpose of assessing risk of an electrocardiogram QT interval prolongation of the compound of the present invention, effects of the compound of the present invention on delayed rectifier K^+ current (IKr), which plays an important role in the ventricular repolarization process, was studied using CHO cells expressing human ether-a-go-go related gene (hERG) channel.
After a cell was retained at a membrane potential of −80 mV by whole cell patch clamp method using an automated patch clamp system (QPatch; Sophion Bioscience A/S) and gave a leak potential of −50 mV, IKr induced by depolarization pulse stimulation at +20 mV for 2 seconds, and further, repolarization pulse stimulation at −50 mV for 2 seconds, was recorded. A vehicle, which was the 0.1% dimethyle sulfoxide solution in extracellular solution (NaCl: 145 mmol/L, KCl: 4 mmol/L, CaCl2: 2 mmol/L, MgCl2: 1 mmol/L, glucose:10 mmol/L, HEPES (4-(2-hydroxyethyl)-1-piperazineethanesulfonic acid): 10 mmol/L, pH7.4), or the compound of the present invention had been dissolved at an objective concentration in the extracellular solution was applied to the cell at room temperature for 7 minutes or more. From the recording IKr, an absolute value of the tail peak current was measured based on the current value at the resting membrane potential using analysis software (QPatch assay software; Sophion Bioscience A/S). Further, the % inhibition of tail peak current for the compound of the present invention relative to the tail peak current after application of the vehicle was calculated to assess influence of the compound of the present invention on IKr. The dilution concentration and dilution solvent were changed as necessary.

[3] = Platelet toxicity test using human blood progenitor cells (WST); assay type: cell-based; conditions: human bone marrow CD34+ progenitor cells, maximum concentration 25 μM
Protocol: Test Example 2: Platelet Toxicity Test Using Human Blood Progenitor Cells
Human bone marrow CD34+ progenitor cells (Lonza, 2M-101B) stored at −80° C. were thawed, spun down at 150 g for 10 minutes at 20° C., and a medium (StemSpan Expansion Supplement, STEM CELL TECHNOLOGIES, ST-02696) to which cytokines (StemSpan SFEM II, STEM CELL TECHNOLOGIES, ST-09655) was added was added to adjust to 2×10^4/well, the mixture was seeded in 12well non-coat dish (Corning, 3513), was incubated for 10 days at 37° C., 5% CO2. After 10 days, the cells were collected and spun down at 150 g for 10 minutes at 20° C., and a medium (StemSpan Expansion Supplement) containing cytokines (StemSpan SFEM II) was added so that the number of cells became 2×10^5 cells/ml. 50 μl of the cell suspension was seeded to each well of a 96-well plate (Corning, 3596) and allowed to stand overnight in an incubator at 37° C., 5% CO2. The next day, 50 μl of the test compound was treated to each well and allowed to stand for 48 hours in the incubator at 37° C., 5% CO2 (n=2). At this time, the test compound dissolved in 100% DMSO was serially diluted with DMSO at a 3-fold ratio, and then a medium containing cytokine was added to adjust the final concentration to 25, 8.33, 2.78, 0.93, 0.31, 0.1 μM. After that, 10 μl of WST (Cell count reagent SF, Nacalai Tesque Inc., 07553-44) was added to each well, and the mixture was allowed to stand in the incubator for 4 hours at 37° C., 5% CO2, and then the multi-label reader 2030 ARVO X4 (PerkinElmer) was used to measure the absorbance. At this time, the absorbance at 450 nm and the absorbance at 620 nm were obtained, and the difference between 450 nm and 620 nm was used as the measured value. The measured values were analyzed by Excel and TIBCO Spotfire, and IC50 values were calculated. At this time, for control (−), the well without cells was set as n=6 for one row, and the average value was calculated, and for control (+), the well in which DMSO was added to the cells so as to have the same concentration as the compound treatment group was set as n=6 for one row, and the average value was calculated and corrected for each plate. For the test compound, the average value of n=2 was used.

[4] = BA test (oral absorption); assay type: in vivo; conditions: plasma; mice or rats; oral vs intravenous administration
Protocol: Materials and methods for experiments to evaluate oral absorption (1) Experimental animals: mice or rats were used. (2) Rearing condition: mice or rats were allowed free access to solid feed and sterilized tap water. (3) Setting of dosage and grouping: Oral administration and intravenous administration were performed with the predetermined dosage. Grouping was set as below. (Dosage was changed per compound)
Oral administration 2 to 60 μmol/kg or 1 to 30 mg/kg (n=2 to 3)
Intravenous administration 1 to 30 μmol/kg or 0.5 to 10 mg/kg (n=2 to 3)
(4) Preparation of administration solutions: Oral administration was performed as suspension or solution. Intravenous administration was performed after solubilization. (5) Routes of administration: Oral administration was performed mandatory into the stomach by oral sonde. Intravenous administration was performed from caudal vein by syringes with needle. (6) Evaluation items: Blood was collected serially and concentration of a compound of the present invention in plasma was measured by LC/MS/MS. (7) Statistical analysis: About transition of concentration of a compound of the present invention in plasma, the area under the plasma concentration versus time curve (AUC) was calculated by non-linear least-squares method program, and bioavailability (BA) of a compound of the present invention was calculated from dosages and AUCs of the oral administration group and the intravenous administration group. The dilution concentration or the dilution solvent were changed as necessary.

T1 sequence (Q92769 whole entry): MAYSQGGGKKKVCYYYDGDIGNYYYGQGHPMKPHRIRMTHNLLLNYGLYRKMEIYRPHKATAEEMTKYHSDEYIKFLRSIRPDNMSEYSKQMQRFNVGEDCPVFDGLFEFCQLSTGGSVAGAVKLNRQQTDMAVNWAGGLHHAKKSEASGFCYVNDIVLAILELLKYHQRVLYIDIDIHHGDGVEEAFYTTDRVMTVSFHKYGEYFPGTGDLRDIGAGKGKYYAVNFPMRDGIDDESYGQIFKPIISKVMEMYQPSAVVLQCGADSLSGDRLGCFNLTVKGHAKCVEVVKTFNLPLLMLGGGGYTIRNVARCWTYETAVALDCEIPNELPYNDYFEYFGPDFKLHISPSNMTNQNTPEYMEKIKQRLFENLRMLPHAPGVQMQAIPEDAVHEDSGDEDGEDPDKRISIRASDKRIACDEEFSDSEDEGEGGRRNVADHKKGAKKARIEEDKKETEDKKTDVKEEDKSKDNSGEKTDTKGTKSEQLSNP
T2 sequence (Q12809 whole entry): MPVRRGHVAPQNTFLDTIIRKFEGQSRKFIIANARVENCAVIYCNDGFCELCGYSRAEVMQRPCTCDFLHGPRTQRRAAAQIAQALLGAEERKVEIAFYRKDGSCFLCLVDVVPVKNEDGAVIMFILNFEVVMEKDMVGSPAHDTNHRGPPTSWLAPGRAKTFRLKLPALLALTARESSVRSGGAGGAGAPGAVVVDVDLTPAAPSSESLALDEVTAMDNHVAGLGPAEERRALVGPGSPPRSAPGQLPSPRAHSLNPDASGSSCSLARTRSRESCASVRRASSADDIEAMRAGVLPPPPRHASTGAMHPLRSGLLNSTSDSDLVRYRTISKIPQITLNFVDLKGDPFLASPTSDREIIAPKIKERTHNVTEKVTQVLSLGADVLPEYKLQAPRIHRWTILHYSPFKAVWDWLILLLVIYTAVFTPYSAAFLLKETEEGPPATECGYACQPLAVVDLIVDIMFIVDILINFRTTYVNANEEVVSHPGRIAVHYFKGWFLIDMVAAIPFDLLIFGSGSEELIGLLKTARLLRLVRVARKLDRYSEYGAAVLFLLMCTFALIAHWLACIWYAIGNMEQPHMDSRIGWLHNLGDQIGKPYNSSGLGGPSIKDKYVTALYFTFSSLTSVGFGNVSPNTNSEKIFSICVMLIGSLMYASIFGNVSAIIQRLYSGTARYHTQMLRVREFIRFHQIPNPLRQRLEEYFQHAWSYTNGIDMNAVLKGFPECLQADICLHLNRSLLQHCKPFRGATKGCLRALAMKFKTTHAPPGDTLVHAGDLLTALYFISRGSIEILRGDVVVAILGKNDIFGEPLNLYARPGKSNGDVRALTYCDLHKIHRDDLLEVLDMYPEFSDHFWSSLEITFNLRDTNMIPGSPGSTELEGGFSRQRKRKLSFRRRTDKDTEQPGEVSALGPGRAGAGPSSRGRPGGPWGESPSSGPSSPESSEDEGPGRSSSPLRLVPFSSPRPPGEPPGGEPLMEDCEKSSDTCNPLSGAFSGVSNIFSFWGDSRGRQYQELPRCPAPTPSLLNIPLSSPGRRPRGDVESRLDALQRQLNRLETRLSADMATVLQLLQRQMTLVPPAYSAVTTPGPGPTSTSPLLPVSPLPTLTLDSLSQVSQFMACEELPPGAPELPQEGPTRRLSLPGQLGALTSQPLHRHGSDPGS

| IC50 [1] [nM] | bioavailability [4] [%] | Structure (SMILES) | % inhibition of tail peak current (IKr) [2] [%] | IC50 at 48 h [3] [nM] |
| --- | --- | --- | --- | --- |
| 310 | 33.8 | Cn1cc(-c2ccc(C(=O)Nc3cc(-c4cccs4)ccc3N)nc2)cn1 [Compound I-003] | 17.1 | > 25000 |
| 54 | 35.6 | Cn1cc(-c2cnc(C(=O)Nc3cc(-c4cccs4)ccc3N)cn2)cn1 [Compound I-006] | 14.3 | > 25000 |
